Measurements published in ChEMBL document CHEMBL1201862, “PubChem BioAssay data set” (2004).
Activity calls are given as the source filed them.

Key:
Insulin-degrading enzyme = Insulin-degrading enzyme (Homo sapiens, UniProt P14735); test: Dose Response: Fluorescence polarization-based cell-based high throughput dose response assay for inhibitors of insulin-degrading enzyme (IDE). [Related pubchem assays: 434962 (Primary screen (IDE inhibitors in singlicate)), 449730 (Counterscreen (Cytotoxicity in triplicate)), 435028 (Confirmation (IDE inhibitors in triplicate)), 434984 (Summary …; type: functional
[1] = Counterscreen for IDE inhibitors: Luminescence-based cell-based high throughput dose response assay to identify compounds that are cytotoxic to HEK cells. [Related pubchem assays: 434962 (Primary screen (IDE inhibitors in singlicate)), 449730 (Counterscreen (Cytotoxicity in triplicate)), 435028 (Confirmation (IDE inhibitors in triplicate)) …; type: functional; conditions: HEK293
[2] = target: 1-acylglycerol-3-phosphate O-acyltransferase ABHD5/Perilipin-5 (Homo sapiens, UniProt Q00G26+Q8WTS1); test: Luminescence-based biochemical high throughput dose response assay for inhibitors of the interaction of the lipase co-activator protein, abhydrolase domain containing 5 (ABHD5) with perilipin-5 (MLDP; PLIN5) (2K validation set). [Related pubchem assays (depositor defined):AID493035, AID493241]
Chain of 1-acylglycerol-3-phosphate O-acyltransferase ABHD5/Perilipin-5 (Q00G26 whole entry, the tested form may be a part): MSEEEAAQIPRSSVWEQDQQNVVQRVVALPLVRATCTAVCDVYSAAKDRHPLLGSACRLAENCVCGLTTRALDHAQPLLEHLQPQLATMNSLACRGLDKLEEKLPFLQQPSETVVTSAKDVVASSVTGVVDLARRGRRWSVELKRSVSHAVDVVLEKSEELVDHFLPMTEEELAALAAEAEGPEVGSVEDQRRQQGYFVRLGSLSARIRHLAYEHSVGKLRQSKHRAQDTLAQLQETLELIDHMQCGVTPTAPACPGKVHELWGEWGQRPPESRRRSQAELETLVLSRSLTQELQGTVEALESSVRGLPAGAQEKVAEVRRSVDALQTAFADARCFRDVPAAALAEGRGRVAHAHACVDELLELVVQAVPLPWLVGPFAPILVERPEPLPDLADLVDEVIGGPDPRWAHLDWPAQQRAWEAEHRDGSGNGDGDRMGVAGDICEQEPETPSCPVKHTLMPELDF
Chain of 1-acylglycerol-3-phosphate O-acyltransferase ABHD5/Perilipin-5 (Q8WTS1 whole entry, the tested form may be a part): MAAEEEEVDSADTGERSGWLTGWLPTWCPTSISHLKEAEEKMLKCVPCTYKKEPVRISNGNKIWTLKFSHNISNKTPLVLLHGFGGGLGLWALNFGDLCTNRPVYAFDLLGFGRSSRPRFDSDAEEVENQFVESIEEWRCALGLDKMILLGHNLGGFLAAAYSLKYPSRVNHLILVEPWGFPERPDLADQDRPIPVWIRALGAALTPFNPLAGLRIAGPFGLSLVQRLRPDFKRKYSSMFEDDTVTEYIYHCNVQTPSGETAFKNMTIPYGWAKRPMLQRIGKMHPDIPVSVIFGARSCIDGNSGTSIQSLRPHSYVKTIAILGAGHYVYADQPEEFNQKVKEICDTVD

Perilipin-1/ABHD5 = Perilipin-1/ABHD5 (Homo sapiens, UniProt O60240+Q8WTS1); test: Luminescence-based biochemical high throughput dose response assay for inhibitors of the interaction of the lipase co-activator protein, abhydrolase domain containing 5 (ABHD5) with perilipin-1 (PLIN1) (2K validation set). [Related pubchem assays (depositor defined):AID493027, AID493057]
[3] = target: T1, Zinc finger protein mex-5 (Caenorhabditis elegans, UniProt Q9XUB2); test: potency of MEX-5 RNA-binding blockers – biochemical, C. elegans, fluorescence polarization, dose response (AID 1960)
T1 sequence (Q9XUB2 whole entry): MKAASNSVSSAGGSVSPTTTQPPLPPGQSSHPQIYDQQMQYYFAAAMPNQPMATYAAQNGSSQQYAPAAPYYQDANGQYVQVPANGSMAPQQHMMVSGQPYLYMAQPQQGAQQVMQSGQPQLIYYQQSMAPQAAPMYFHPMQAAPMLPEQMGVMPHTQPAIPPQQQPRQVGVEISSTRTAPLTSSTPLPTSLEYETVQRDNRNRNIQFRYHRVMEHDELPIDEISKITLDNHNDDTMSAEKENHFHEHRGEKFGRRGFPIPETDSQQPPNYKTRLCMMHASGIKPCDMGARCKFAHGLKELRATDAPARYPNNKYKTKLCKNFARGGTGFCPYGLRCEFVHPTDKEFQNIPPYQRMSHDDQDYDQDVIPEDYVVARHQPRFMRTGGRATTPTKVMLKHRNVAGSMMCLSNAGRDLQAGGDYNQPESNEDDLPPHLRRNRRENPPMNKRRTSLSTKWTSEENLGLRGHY

[4] = target: T2, RNA-binding protein pos-1 (Caenorhabditis elegans, UniProt G5EF15); test: disruptors of C. elegans POS-1 RNA interaction – biochemical, fluorescence polarization, dose response (AID 1964);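 also: purified POS-1 fused to maltose binding protein made in E. coli; potency of compounds blocking POS-1 binding to fluorescent RNA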
T2 sequence (G5EF15 whole entry): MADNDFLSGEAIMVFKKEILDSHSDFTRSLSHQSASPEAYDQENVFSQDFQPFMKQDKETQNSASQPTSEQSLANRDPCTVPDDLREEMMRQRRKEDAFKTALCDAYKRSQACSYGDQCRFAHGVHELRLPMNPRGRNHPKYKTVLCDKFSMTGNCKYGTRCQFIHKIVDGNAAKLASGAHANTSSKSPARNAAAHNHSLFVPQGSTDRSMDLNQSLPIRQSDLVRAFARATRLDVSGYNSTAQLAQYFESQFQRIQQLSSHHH

[5] = viability of PTEN-deleted HCT116 cells – cell-based, HCT116 PTEN knockout, dose response (AID 1047); type: functional;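 also: HCT116 colon tumor cells with PTEN knocked out; cells exposed to compound for 60 hours before readout; potency for loss of cell viability measured by luminescence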
[6] = target: T3, Alkaline phosphatase, tissue-nonspecific isozyme (Homo sapiens, UniProt P05186); test: potency against alkaline phosphatase TNAP – biochemical, luminescent, dose response, SAR follow-up (AID 1056)
T3 sequence (P05186 whole entry): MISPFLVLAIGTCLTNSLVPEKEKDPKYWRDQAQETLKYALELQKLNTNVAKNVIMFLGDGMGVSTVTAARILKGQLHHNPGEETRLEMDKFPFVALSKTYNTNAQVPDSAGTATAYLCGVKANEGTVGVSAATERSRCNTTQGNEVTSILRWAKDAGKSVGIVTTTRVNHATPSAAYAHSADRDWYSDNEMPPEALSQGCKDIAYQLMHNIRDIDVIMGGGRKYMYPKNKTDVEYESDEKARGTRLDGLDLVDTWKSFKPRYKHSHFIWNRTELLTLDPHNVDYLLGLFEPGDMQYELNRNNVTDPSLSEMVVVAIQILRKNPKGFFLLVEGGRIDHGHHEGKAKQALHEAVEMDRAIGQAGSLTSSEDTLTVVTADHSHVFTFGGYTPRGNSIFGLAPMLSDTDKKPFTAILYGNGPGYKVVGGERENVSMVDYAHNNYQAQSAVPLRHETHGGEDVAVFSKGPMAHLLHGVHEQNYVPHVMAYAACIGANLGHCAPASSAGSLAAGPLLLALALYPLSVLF

[7] = target: Alkaline phosphatase, placental type (Homo sapiens, UniProt P05187); test: human placental alkaline phosphatase inhibition – biochemical, luminescence, confirmation (AID 1512); type: functional
[8] = viability of HCT116 lacking mutant beta-catenin – cell-based, human colon tumor, dose response (AID 1045); type: functional;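 also: HCT116 colon tumor cells with beta catenin knocked out; cells exposed to compound for 60 hours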
Coagulation factor XII = target: T4, Coagulation factor XII (Homo sapiens, UniProt P00748); test: activated coagulation factor XII inhibitor potency, concentration-effect curve, cell-free (AID 716); type: functional
T4 sequence (P00748 whole entry): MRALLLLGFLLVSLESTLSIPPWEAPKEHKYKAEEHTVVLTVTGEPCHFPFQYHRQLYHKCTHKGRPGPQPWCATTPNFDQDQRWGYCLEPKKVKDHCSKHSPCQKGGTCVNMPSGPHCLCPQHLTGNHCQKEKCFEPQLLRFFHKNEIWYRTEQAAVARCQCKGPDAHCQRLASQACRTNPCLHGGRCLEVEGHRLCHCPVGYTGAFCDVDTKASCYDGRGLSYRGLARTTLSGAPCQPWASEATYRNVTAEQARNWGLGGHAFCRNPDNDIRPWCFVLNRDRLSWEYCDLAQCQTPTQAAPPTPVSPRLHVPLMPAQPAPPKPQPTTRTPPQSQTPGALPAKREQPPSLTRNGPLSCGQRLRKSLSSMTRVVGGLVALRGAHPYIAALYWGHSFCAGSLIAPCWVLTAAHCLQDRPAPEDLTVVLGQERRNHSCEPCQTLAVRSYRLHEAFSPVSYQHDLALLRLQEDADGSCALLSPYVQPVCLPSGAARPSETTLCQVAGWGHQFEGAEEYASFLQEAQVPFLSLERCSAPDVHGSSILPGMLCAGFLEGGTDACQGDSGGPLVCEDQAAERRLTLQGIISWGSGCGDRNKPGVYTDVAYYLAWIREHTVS

Mucolipin-3 = Mucolipin-3 (Homo sapiens, UniProt Q8TDD5); test: Fluorescence counterscreen assay for […] agonists: dose response cell-based high-throughput screening assay to identify agonists of the transient receptor potential channel ML3 (TRPML3). [Related pubchem assays: 1424, 1448 ]; type: functional
Chain of Mucolipin-3 (Q8TDD5 whole entry): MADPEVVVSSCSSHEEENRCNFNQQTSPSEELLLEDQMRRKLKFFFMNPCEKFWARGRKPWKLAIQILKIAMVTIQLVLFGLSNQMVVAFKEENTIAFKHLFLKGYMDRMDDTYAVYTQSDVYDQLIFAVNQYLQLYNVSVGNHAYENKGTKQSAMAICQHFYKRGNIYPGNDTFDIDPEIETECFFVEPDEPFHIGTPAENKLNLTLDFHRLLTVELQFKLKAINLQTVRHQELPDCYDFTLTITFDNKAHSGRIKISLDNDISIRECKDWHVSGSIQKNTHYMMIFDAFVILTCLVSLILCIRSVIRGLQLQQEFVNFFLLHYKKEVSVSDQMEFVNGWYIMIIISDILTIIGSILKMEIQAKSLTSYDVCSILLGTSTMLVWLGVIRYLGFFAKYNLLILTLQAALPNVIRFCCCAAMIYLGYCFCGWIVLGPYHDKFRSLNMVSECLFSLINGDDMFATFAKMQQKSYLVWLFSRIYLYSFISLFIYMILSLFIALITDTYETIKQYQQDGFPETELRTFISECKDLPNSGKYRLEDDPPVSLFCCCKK

Exodeoxyribonuclease V = Exodeoxyribonuclease V (Escherichia coli (strain K12), UniProt P04993+P07648+P08394); test: RecBCD inhibition via phage-restricted bacterial growth – absorbance, V66 E. coli, mutant T4 phage, counter-screen for AddAB inhibitor project, dose response (AID 492957); type: functional, cell-based, Escherichia coli str. K-12 substr. MG1655
Chain of Exodeoxyribonuclease V (P04993 whole entry): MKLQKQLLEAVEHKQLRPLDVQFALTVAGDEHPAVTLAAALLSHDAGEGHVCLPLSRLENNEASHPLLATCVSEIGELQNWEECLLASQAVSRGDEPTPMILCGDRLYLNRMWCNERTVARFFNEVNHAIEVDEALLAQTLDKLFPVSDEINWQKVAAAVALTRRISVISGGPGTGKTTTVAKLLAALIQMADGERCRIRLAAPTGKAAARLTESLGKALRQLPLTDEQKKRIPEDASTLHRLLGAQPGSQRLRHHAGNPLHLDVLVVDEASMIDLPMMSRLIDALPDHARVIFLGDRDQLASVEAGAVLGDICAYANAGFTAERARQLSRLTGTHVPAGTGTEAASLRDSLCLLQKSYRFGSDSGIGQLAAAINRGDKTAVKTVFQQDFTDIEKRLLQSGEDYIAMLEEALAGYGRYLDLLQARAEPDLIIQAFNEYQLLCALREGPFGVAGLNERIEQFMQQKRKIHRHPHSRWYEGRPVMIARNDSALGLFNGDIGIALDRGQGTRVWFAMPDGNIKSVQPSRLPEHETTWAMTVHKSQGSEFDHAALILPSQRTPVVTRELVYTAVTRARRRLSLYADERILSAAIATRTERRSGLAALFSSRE
Chain of Exodeoxyribonuclease V (P07648 whole entry): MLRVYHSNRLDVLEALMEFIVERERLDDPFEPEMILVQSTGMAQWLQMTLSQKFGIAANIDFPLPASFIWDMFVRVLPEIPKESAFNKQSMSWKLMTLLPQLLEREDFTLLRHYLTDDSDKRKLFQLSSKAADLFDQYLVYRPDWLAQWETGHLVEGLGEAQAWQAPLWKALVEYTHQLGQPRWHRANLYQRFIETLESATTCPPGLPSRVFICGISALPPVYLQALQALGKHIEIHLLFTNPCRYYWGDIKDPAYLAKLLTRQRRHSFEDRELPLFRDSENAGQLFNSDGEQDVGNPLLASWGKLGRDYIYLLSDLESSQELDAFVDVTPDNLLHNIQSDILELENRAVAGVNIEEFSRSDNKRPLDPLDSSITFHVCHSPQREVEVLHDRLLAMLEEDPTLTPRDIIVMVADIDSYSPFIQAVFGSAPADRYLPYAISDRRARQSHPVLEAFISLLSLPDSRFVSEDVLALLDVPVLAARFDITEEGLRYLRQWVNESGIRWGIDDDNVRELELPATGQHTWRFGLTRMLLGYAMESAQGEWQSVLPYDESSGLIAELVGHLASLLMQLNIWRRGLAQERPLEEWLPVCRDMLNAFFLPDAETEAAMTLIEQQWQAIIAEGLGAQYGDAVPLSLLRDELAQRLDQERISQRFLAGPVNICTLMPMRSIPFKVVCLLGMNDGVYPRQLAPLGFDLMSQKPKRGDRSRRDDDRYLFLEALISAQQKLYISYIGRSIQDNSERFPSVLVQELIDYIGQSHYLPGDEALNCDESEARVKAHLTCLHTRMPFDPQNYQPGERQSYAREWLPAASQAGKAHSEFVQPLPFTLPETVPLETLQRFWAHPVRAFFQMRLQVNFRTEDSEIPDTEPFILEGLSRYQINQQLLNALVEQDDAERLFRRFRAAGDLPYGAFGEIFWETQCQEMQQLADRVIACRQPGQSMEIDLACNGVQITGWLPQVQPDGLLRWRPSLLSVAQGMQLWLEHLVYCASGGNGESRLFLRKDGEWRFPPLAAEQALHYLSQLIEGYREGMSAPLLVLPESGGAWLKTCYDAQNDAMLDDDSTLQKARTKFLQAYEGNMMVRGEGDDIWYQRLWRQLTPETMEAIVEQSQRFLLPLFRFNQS
Chain of Exodeoxyribonuclease V (P08394 whole entry): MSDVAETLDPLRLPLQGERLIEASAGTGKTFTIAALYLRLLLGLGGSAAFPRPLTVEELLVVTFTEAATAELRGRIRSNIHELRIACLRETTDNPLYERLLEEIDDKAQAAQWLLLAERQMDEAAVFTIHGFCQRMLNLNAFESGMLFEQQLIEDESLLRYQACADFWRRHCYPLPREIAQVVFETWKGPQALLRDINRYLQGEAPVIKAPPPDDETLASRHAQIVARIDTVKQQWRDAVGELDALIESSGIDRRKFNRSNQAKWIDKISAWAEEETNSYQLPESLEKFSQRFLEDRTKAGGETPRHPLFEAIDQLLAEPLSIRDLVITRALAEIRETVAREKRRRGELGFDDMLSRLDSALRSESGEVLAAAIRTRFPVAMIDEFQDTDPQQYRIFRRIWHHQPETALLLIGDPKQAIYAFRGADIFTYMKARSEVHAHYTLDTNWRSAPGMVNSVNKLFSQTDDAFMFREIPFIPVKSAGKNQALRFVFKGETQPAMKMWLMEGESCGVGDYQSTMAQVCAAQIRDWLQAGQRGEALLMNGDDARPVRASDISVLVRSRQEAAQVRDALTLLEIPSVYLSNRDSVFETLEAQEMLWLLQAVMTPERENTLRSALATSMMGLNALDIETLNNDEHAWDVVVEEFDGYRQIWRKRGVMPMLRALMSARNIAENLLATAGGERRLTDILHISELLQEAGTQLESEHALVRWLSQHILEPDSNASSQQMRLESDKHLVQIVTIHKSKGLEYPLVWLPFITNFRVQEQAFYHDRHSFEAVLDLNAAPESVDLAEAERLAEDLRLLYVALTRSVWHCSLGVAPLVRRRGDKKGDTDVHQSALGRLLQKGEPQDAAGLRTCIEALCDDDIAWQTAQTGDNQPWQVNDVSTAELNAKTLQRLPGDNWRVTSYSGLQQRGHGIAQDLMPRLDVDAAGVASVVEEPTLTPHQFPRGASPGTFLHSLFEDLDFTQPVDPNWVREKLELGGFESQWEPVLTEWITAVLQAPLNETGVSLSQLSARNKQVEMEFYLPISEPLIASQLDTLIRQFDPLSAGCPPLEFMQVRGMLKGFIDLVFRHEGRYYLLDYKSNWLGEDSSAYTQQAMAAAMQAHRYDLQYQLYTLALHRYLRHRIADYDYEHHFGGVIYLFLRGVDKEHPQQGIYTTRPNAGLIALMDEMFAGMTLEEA

Ion channel NompC = Ion channel NompC (Danio rerio, UniProt Q7T1G6); test: Dose response cell-based high-throughput screening assay for agonists of the transient receptor potential channel N1 (TRPN1). [Related pubchem assays (depositor defined):AID1424, AID1448]; type: functional
[9] = target: T5, Short transient receptor potential channel 4 (Mus musculus, UniProt Q9QUQ5); test: calcium entry via TRPC4 opening agents – cell-based, HEK293 TRPC4/mu-opioid, Fluo-4 calcium, dose response (AID 434937); type: functional
T5 sequence (Q9QUQ5 whole entry): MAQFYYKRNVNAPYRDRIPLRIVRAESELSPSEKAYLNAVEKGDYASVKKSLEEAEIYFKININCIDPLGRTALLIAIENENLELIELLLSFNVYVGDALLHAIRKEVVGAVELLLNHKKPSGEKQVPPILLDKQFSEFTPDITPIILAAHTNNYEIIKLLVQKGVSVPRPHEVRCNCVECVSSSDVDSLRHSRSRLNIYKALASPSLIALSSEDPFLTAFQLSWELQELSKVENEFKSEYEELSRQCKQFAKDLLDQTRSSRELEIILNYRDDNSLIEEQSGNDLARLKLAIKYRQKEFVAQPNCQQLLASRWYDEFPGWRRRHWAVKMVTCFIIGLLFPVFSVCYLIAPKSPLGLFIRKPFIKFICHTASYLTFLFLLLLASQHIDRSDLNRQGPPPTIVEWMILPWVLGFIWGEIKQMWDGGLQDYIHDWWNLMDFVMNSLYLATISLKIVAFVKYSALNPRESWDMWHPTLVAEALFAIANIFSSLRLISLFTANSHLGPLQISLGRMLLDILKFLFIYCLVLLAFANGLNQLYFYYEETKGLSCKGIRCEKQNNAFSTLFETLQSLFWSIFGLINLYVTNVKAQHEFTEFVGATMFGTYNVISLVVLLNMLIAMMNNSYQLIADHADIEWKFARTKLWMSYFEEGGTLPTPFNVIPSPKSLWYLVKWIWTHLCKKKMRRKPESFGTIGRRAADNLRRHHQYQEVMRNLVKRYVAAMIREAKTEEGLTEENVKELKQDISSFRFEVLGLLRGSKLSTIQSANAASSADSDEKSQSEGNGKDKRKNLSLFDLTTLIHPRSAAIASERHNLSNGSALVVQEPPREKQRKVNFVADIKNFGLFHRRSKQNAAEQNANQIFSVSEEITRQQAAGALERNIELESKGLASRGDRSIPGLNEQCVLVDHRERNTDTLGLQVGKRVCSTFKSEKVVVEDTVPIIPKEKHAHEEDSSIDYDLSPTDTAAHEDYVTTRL

Vero = test: cells; type: functional; conditions: Chlorocebus sabaeus
[10] = Counterscreen for AddAB inhibitors: absorbance-based bacterial cell-based high throughput dose response assay for inhibitors of bacterial viability. [Related pubchem assays (depositor defined):AID435030, AID449728, AID449731, AID488942, AID488955, AID488956]; type: functional
[11] = PhoP promoter GFP reporter reduction in Typhimurium – purified and synthesized compounds, set 2, PhoP regulon inhibitor project, dose response (AID 2831); type: functional
Integrin alpha-L = Integrin alpha-L (Mus musculus, UniProt P24063); test: modulators of CD8 T cell-vesicle binding, dose response, powder samples, mouse 2C CD8+ cells (AID 504565); type: functional
[12] = reduction of Shn3 3'UTR-driven luciferase in osteoblasts – cell-based, Clone20 osteoblasts, firefly luciferase, cherry-picked, dose response (AID 624132); type: functional;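 also: firefly luciferase luminescence from reporter carrying the Shn3 3'UTR in osteoblasts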
[13] = target: T6, Tyrosine-protein phosphatase non-receptor type 7 (Homo sapiens, UniProt P35236); test: inhibition of hematopoietic tyrosine phosphatase HePTP – biochemical, set 2, SAR follow-up (AID 449736); type: functional
T6 sequence (P35236 whole entry): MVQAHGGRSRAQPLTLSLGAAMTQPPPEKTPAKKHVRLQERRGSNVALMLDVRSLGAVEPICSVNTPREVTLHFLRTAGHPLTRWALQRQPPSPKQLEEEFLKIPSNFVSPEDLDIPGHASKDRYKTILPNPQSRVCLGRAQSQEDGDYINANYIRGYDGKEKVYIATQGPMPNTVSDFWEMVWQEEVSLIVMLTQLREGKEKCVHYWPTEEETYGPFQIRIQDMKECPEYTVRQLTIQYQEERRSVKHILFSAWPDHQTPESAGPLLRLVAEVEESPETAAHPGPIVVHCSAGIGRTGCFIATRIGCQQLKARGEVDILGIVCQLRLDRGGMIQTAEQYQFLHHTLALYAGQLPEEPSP

[14] = target: Delta-type opioid receptor (Homo sapiens, UniProt P41143); test: SAR Analysis of Antagonists of the DOR Receptor using an Image-Based Assay - Set 3. [Related pubchem assays (depositor defined):AID1777, AID1785]; type: functional;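 also: U2OS cells expressing DOR1 and beta-arrestin GFP stimulated with 100 nM SNC80; imaging of GFP-tagged beta-arrestin moving into spots after receptor activation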
Chain of Delta-type opioid receptor (P41143 whole entry): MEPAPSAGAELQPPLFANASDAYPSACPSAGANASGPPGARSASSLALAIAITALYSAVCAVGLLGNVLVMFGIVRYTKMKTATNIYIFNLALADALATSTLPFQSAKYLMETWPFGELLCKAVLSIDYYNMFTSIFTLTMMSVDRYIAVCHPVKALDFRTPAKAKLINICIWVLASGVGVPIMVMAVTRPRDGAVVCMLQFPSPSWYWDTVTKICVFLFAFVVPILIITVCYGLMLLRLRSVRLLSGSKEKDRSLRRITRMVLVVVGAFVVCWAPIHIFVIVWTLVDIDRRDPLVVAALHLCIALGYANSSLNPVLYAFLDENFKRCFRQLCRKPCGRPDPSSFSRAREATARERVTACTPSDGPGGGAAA

[15] = target: T7, Kappa-type opioid receptor (Homo sapiens, UniProt P41145); test: SAR analysis of Antagonists of the Kappa Opioid Receptor (KOR) using an Image-Based Assay - Set 3. [Related pubchem assays (depositor defined):AID1777, AID1785]; type: functional
T7 sequence (P41145 whole entry): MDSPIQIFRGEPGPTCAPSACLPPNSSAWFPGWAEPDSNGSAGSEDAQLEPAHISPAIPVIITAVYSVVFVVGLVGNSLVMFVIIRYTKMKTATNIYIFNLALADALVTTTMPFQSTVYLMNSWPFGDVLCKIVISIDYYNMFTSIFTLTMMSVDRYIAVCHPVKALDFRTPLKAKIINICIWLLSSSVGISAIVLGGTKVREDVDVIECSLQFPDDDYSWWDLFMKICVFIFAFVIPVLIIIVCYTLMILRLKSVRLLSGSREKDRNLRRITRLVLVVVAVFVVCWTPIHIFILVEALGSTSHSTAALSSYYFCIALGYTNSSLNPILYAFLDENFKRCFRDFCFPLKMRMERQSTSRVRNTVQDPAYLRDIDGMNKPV

[16] = target: T7, Kappa-type opioid receptor; test: SAR analysis of small molecule antagonists of the kappa opioid receptor via a luminescent beta-arrestin assay - Set 3. [Related pubchem assays (depositor defined):AID1777, AID1778, AID1785, AID1786, AID1966, AID2133, AID2136, AID2285, AID2495]; type: functional
Mu-type opioid receptor = Mu-type opioid receptor (Homo sapiens, UniProt P35372); test: SAR Analysis of Antagonists of the MOR Receptor using an Image-Based Assay - Set 3. [Related pubchem assays (depositor defined):AID1777, AID1785, AID1786, AID1966, AID2133, AID2136, AID2284, AID2285, AID2420]; type: functional

## CS(=O)(=O)Oc1ccc2c(c1)O/C(=C\C=C\c1ccccc1)C2=O
Insulin-degrading enzyme
  IC50: > 55.9 µM (not active)
[1]
  IC50: 19.4 µM (not active)
[2]
  IC50: 17.6 µM (inactive)
Perilipin-1/ABHD5
  IC50: 11 µM (inactive)
[3]
  EC50: 3.83 µM (active)
[4]
  EC50: 5.46 µM (active)

## O=C(NC1(C(F)(F)F)Oc2ccccc2O1)N1CCCC1
[5]
  EC50: 15.4 µM (active)
[6]
  IC50: > 100 µM (inactive)
[7]
  IC50: 80.9 µM (active)
[8]
  EC50: 18 µM (active)

## COc1ccc(-c2nnc(SCC(=O)Nc3cc(C)on3)n2N)cc1OC
Coagulation factor XII
  IC50: > 50 µM (inactive)

## O=C(Nc1nnc(-c2cccs2)o1)c1cccc(C(F)(F)F)c1
Mucolipin-3
  EC50: 4.5 µM (active)
Exodeoxyribonuclease V
  IC50: 68.2 µM (inactive)
Ion channel NompC
  EC50: 3.33 µM (active)
[9]
  EC50: 11.9 µM (active)
Vero
  CC50: > 25 µM (active)
[10]
  IC50: > 39.5 µM (inactive)
[11]
  IC50: > 125 µM (active)

## CN(CC(=O)Nc1cc(S(=O)(=O)N2CCCC2)ccc1Cl)Cc1ccc2c(c1)OCO2
Integrin alpha-L
  EC50: 0.197 µM (active)
[12]
  AC50: 13.1 µM (active)

## Cc1ccccc1-n1c(N)c(C(=O)N2CCOCC2)sc1=S
[13]
  IC50: > 100 µM (inactive)

## Cc1ccc(S(=O)(=O)NCc2ccc(C(=O)NCCN3Cc4ccccc4C3)cc2)cc1
[14]
  IC50: > 32 µM (inactive)
[15]
  IC50: > 32 µM (inactive)
[16]
  IC50: > 20 µM (inactive)
Mu-type opioid receptor
  IC50: > 32 µM (inactive)
